According to patent US7910746B2, “Haloalkyl carboxamides” (Bayer CropScience AG, priority 2004, dated 2011):

system: not listed separately; assay: log P by HPLC on reverse phase column (C18), acid range; type: physicochemical; settings: pH 2.3, HPLC C18, 43° C.
Procedure: The specified log P values are determined by HPLC on a reverse phase column (C18) in accordance with EEC Directive 79/831 Annex V.A8. Temperature: 43° C. Eluents for the measurement in the acid range (pH 2.3): 0.1% aqueous phosphoric acid, acetonitrile; linearer gradient of 10% acetonitrile to 90% acetonitrile. Calibration is performed with unbranched alkyl-2-ones (with 3 to 16 carbon atoms) with known log P values (determination of the log P values based on retention times by linear interpolation between two sequential alkyl ketones).

Going from `CC(CCc1ccccc1NC(=O)c1cn(C)nc1C(F)F)C(F)(F)F` (stereo not drawn) [Example 2, 3-difluoromethyl-1-methyl-1H-pyrazole-4-carboxyic acid, [2-(4,4,4-trifluoro-3-methylbutyl)-phenyl]-amide] to `CC(CCc1cc(Cl)ccc1NC(=O)c1ccccc1C(F)(F)F)C(F)(F)F` (stereo not drawn) [Example 1, N-[4-chloro-2-(4,4,4-trifluoro-3-methylbutyl)-phenyl]-2-trifluoromethylbenzamide], the chromatographic logP rises from 2.93 to 4.08.

system: Sphaerotheca fuliginea; assay: Sphaerotheca test (cucumber)/protective; type: in vivo; settings: protective, application rate 100 g/ha, evaluation seven days after inoculation
Procedure: Sphaerotheca Test (Cucumber)/Protective Solvent: • 24.5 parts by weight acetone • 24.5 parts by weight dimethyl acetamide Emulsifier: 1 part by weight alkyl aryl polyglycol ether To produce an appropriate active ingredient preparation, one part by weight of the active substance is mixed with the specified quantities of solvent and emulsifying agent, and the concentrate is diluted with water to the desired concentration. Young plants are sprayed with the active ingredient preparation at the specified application rate to test the effectiveness of protection. After the sprayed coating has dried, the plants are inoculated with an aqueous spore suspension of Sphaerotheca fuliginea. Then the plants are placed in the greenhouse at about 23° C. with relative humidity of about 70%. The evaluation is performed seven days after the inoculation. A degree of effectiveness rating of 0% corresponds to the control, with 100% indicating no infestation observed.

First: Cc1nn(C)c(F)c1C(=O)Nc1ccccc1CCC(C)C(F)(F)F (stereo not drawn) [drawing 82]
Second: CC(CCc1ccccc1NC(=O)c1cn(C)nc1C(F)F)C(F)(F)F (stereo not drawn) [drawing 83]
The “Degree of effectiveness in %” value of the first is higher: 100% for the first, 98% for the second.

First: CCC(Cl)CC(C)c1ccccc1NC(=O)c1cn(C)nc1C(F)F (stereo not drawn) [drawing 81]
Second: CCC(Cl)CC(C)c1ccccc1NC(=O)c1c(C)nn(C)c1F (stereo not drawn) [drawing 80]
The “Degree of effectiveness in %” value of the first is higher: 100% for the first, 95% for the second.

system: Venturia inaequalis; assay: Venturia test (apple)/protective; type: in vivo; settings: protective, application rate 100 g/ha, evaluation ten days after inoculation
Procedure: Venturia Test (Apple)/Protective Solvent: • 24.5 parts by weight acetone • 24.5 parts by weight dimethyl acetamide Emulsifier: 1 part by weight alkyl aryl polyglycol ether To produce an appropriate active ingredient preparation, one part by weight of the active substance is mixed with the specified quantities of solvent and emulsifying agent, and the concentrate is diluted with water to the desired concentration. Young plants are sprayed with the active ingredient preparation at the specified application rate to test the effectiveness of protection. After the sprayed coating has dried, the plants are inoculated with an aqueous conidia suspension of the apple scab pathogen Venturia inaequalis and are then kept in an incubator at 20° C. and 100% relatively humidity for one day. Then the plants are placed in the greenhouse at about 21° C. with relative humidity of about 90%. The evaluation is performed ten days after the inoculation. A degree of effectiveness rating of 0% corresponds to the control, with 100% indicating no infestation observed.

Compared with `Cc1nn(C)c(F)c1C(=O)Nc1ccccc1CCC(C)C(F)(F)F` (stereo not drawn) [drawing 88], `CC(CCc1ccccc1NC(=O)c1cn(C)nc1C(F)F)C(F)(F)F` (stereo not drawn) [drawing 89] is higher in “Degree of effectiveness in %” value: 94% for the first, 97% for the second.

`CCC(Cl)CC(C)c1ccccc1NC(=O)c1c(C)nn(C)c1F` (stereo not drawn) [drawing 85] and `CCC(Cl)CC(C)c1ccccc1NC(=O)c1cn(C)nc1C(F)F` (stereo not drawn) [drawing 86] are the same in “Degree of effectiveness in %” value: 100% for the first, 100% for the second.

Going from `CC(CCc1ccccc1NC(=O)c1ccccc1I)C(F)(F)F` (stereo not drawn) [drawing 87] to `CC(CCc1cc(Cl)ccc1NC(=O)c1cn(C)nc1C(F)F)C(F)(F)F` (stereo not drawn), the “Degree of effectiveness in %” value falls from 94% to 93%.

system: Botrytis cinerea; assay: Botrytis test (bean)/protective; type: in vivo; settings: protective, application rate 500 g/ha, evaluation two days after inoculation
Procedure: Botrytis Test (Bean)/Protective Solvent: • 24.5 parts by weight acetone • 24.5 parts by weight dimethyl acetamide Emulsifier: 1 part by weight alkyl aryl polyglycol ether To produce an appropriate active ingredient preparation, one part by weight of the active substance is mixed with the specified quantities of solvent and emulsifying agent, and the concentrate is diluted with water to the desired concentration. Young plants are sprayed with the active ingredient preparation at the specified application rate to test the effectiveness of protection. After the sprayed coating has dried, two small pieces of agar with cultured Botrytis cinerea are placed on each leaf. The inoculated plants are placed in a darkened chamber at about 20° C. and 100% relatively humidity. Two days after the inoculation, the size of the infestation spots on the leaves is evaluated. A degree of effectiveness rating of 0% corresponds to the control, with 100% indicating no infestation observed.

First: CCC(Cl)CC(C)c1ccccc1NC(=O)c1c(C)nn(C)c1F (stereo not drawn) [drawing 90]
Second: CCC(Cl)CC(C)c1ccccc1NC(=O)c1cn(C)nc1C(F)F (stereo not drawn) [drawing 91]
The “Degree of effectiveness in %” value of the first is lower: 82% for the first, 100% for the second.

With `CC(CCc1ccccc1NC(=O)c1cn(C)nc1C(F)F)C(F)(F)F` (stereo not drawn) [drawing 92] the “Degree of effectiveness in %” value was 99%.

system: Puccinia recondita; assay: Puccinia test (wheat)/protective; type: in vivo; settings: protective, application rate 500 g/ha, evaluation ten days after inoculation
Procedure: Puccinia Test (Wheat)/Protective Solvent: 50 parts by weight N,N-dimethyl acetamide Emulsifier: 1 part by weight alkyl aryl polyglycol ether To produce an appropriate active ingredient preparation, one part by weight of the active substance is mixed with the specified quantities of solvent and emulsifying agent, and the concentrate is diluted with water to the desired concentration. Young plants are sprayed with the active ingredient preparation at the specified application rate to test the effectiveness of protection. After the sprayed coating has dried, the plants are sprayed with a conidia suspension of Puccinia recondita. The plants are kept in an incubator at 20° C. and 100% relatively humidity for 48 hours. Then the plants are placed in a greenhouse at a temperature of about 20° C. and a relatively humidity of 80%, in order to promote the development of rust spots. The evaluation is performed ten days after the inoculation. A degree of effectiveness rating of 0% corresponds to the control, with 100% indicating no infestation observed.

`CC(CCc1ccccc1NC(=O)c1cn(C)nc1C(F)F)C(F)(F)F` (stereo not drawn) [drawing 95] and `CCC(Cl)CC(C)c1ccccc1NC(=O)c1cn(C)nc1C(F)F` (stereo not drawn) [drawing 93] are the same in “Degree of effectiveness in %” value: 100% for the first, 100% for the second.

With `CC(CCc1ccccc1NC(=O)c1ccccc1I)C(F)(F)F` (stereo not drawn) [drawing 94] the “Degree of effectiveness in %” value was 100%.

system: Alternaria solani; assay: Alternaria test (tomato)/protective; type: in vivo; settings: protective, application rate 750 g/ha, evaluation seven days after inoculation
Procedure: Alternaria Test (Tomato)/Protective Solvent: 49 parts by weight N,N-dimethyl formamide Emulsifier: 1 part by weight alkyl aryl polyglycol ether To produce an appropriate active ingredient preparation, one part by weight of the active substance is mixed with the specified quantities of solvent and emulsifying agent, and the concentrate is diluted with water to the desired concentration. Young tomato plants are sprayed with the active ingredient preparation at the specified application rate to test the effectiveness of protection. One day after treatment, the plants are inoculated with a spore suspension of Alternaria solani and are kept for 24 hours at 100% relatively humidity and 20° C. Subsequently, the plants are kept at 96% relatively humidity and a temperature of 20° C. The evaluation is performed seven days after the inoculation. A degree of effectiveness rating of 0% corresponds to the control, with 100% indicating no infestation observed.

Compared with `CCC(Cl)CC(C)c1ccccc1NC(=O)c1cn(C)nc1C(F)F` (stereo not drawn) [drawing 98], `CCC(Cl)CC(C)c1ccccc1NC(=O)c1c(C)nn(C)c1F` (stereo not drawn) [drawing 97] is higher in “Degree of effectiveness in %” value: 95% for the first, 100% for the second.

With `Cc1nn(C)c(F)c1C(=O)Nc1ccc(Cl)cc1CCC(C)C(F)(F)F` (stereo not drawn) the “Degree of effectiveness in %” value was 90%.
